This note sets out measurements from patent US20080119434A1, “Sir2a-based therapeutic and prophylactic methods” (The Trustees of Colubia University, priority 2001, published 2008).

In one assay the target is T1, Sir2α (Mus musculus, UniProt Q923E4).
T1 construct: To construct Sir2α expression constructs, the full-length cDNA was subcloned from pET28a-Sir2α; Flag (N); made in house
T1 sequence (Q923E4 1-737): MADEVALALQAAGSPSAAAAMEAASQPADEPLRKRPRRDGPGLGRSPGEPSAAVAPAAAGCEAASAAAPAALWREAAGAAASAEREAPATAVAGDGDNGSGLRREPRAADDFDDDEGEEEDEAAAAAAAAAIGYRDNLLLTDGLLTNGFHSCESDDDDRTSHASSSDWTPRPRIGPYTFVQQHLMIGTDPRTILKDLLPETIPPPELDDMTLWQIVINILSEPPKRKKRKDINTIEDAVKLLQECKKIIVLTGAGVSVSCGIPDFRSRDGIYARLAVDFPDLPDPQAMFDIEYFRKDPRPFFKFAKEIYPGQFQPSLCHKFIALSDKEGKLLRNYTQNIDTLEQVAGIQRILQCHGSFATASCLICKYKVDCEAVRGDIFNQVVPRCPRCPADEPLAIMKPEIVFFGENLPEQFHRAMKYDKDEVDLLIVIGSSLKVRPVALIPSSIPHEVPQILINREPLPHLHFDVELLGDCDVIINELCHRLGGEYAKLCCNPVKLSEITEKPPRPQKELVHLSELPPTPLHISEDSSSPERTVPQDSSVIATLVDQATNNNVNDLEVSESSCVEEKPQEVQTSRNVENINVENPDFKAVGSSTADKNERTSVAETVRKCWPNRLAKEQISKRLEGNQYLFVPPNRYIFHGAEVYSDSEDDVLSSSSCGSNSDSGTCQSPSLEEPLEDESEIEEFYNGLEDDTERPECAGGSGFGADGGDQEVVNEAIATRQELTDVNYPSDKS
Nature of the assay: In vitro p53 deacetylation assay with purified Flag-tagged Sir2α. The conditions noted are these: 10 ng Sir2α, 50 μM NAD, 60 min at 30° C.; TSA 500 nM, nicotinamide 5 mM, 3-AB 3 mM. It counts as biochemical. How it is done: FIG. 2. TSA-insensitive deacetylation of p53 by mammalian Sir2α. (A) Colloidal blue staining of a SDS-PAGE gel containing protein Marker (lane 1), a control eluate from M2 loaded with untransfected cell extract (lane 2), and 100 ng of the highly purified Flag-tagged Sir2α recombinant protein (lane 3). (B) Deacetylation of p53 by Sir2α. […] NAD (50 μM) was also added in each reaction except lane 2. The proteins were analyzed by resolution on SDS-PAGE and autoradiography (upper) or Coomassie blue staining (lower). (C) Reduction of the steady-state levels of acetylated p53 by both mouse Sir2α and human SIRT1 expression. Western blot analysis of H1299 cell extracts from the cells cotransfected with p53 and p300 (lane 1), or in combination with Sir2α (lane 2), or in combination with hSIRT1 (lane 4), or Sir2α-355A (lane 3), or hSIRT1-363Y (lane 5), or hSIRT5 (lane 6), or PARP (lane 7) by acetylated p53-specific antibody (upper) or DO-1 for total p53 (lower). The highly conserved histidine residue at the core domain was replaced by alanine for mouse Sir2α (a.a. 355) Sir2α-355A), or replaced by tyrosine for human SIRT1 (a.a. 363) (hSIRT1-363Y). […] The acetylated p53 levels in the cells cotransfected with p53 and p300 (lanes 1, 3), or cotransfected with p53, p300 and Sir2α (lanes 2, 4).
FIG. 3. Abrogation of mammalian Sir2α mediated deacetylation of p53 by nicotinamide. (A) Sir2α-mediated deacetylation of p53 is inhibited by nicotinamide. […] The proteins were analyzed by resolution on SDS-PAGE and autoradiography (upper) or Coomassie blue staining (lower). […]
The Flag-tagged Sir2α cells were established and expanded in DMEM medium, and cell extracts were prepared essentially as previously described (Luo et al., 2000; Gu et al., 1999). […] The eluted proteins were resolved by a SDS-PAGE gel and analyzed by colloidal blue staining (Novex). […] The reactions were resolved on SDS-PAGE and analyzed by Coomassie blue staining and autoradiography.

Assay [1] deals with acetylated p53 in H460 cells. The assay can be described thus: Acetylation levels of endogenous p53 in H460 cells during DNA damage response (western blot). The assay is classed as cell-based, human. The conditions noted are these: for acetylation level of p53, agent added to etoposide and TSA: etoposide + TSA + agent vs etoposide + TSA, nicotinamide 5 mM. How it is done:
FIG. 3. […] 2.5 μg of ^14C-labeled acetylated p53 (lane 1) was incubated with 10 ng of purified Sir2α and 50 μM NAD alone (lane 2), or in the presence of either 5 mM of nicotinamide (lane 3) or 3 mM of 3-AB (3-aminobenzamide) (lane 4) for 60 min at 30° C. The proteins were analyzed by resolution on SDS-PAGE and autoradiography (upper) or Coomassie blue staining (lower). […] The cell extracts from untreated cells (lane 1), or treated with ALLN (50 μM) were also included (lane 6).
After treatment, the cells were harvested for western blot analysis. The rabbit polyclonal antibody specific for p300-mediated acetylated p53-[α-p53(Ac)-C] was raised and purified against the acetylated human p53 C-terminal peptide [p53 (Ac)-C: H-S55GQSTSRH55LMF-OH (5=acetylated Lysine)] as described before (Luo et al., 2000). In the case of cotransfection assays testing for p53 acetylation levels, H1299 cells were transfected with 5 μg of CMV-p53 plasmid DNA, 5 μg of CMV-p300 plasmid DNA, and 10 μg of pcDNA3—Sir2α plasmid DNA as indicated. […] The cell extracts were resolved by either 8% or 4-20% SDS-PAGE gels (Novex) and analyzed by western blot with α-p53(Ac)-C and α-p53(DO-1).
Background: A western blot detects proteins with antibodies after separation by electrophoresis.

In assay [2] the test system is Sir2α-mediated deacetylation of endogenous p53 in MEF p53(+/+) cells. The assay can be described thus: Sir2α-mediated deacetylation of endogenous p53 in pBabe-Sir2α infected MEF p53(+/+) cells (western blot). It counts as cell-based, mouse. The conditions noted are these: etoposide and TSA in combination with nicotinamide, 6 hr. How it is done: FIG. 3. Abrogation of mammalian Sir2α mediated deacetylation of p53 by nicotinamide. (A) Sir2α-mediated deacetylation of p53 is inhibited by nicotinamide. 2.5 μg of ^14C-labeled acetylated p53 (lane 1) was incubated with 10 ng of purified Sir2α and 50 μM NAD alone (lane 2), or in the presence of either 5 mM of nicotinamide (lane 3) or 3 mM of 3-AB (3-aminobenzamide) (lane 4) for 60 min at 30° C. The proteins were analyzed by resolution on SDS-PAGE and autoradiography (upper) or Coomassie blue staining (lower). (B) Enhancement of endogenous p53 acetylation levels by nicotinamide. […] (C) The Sir2α-mediated deacetylation of endogenous p53 was abrogated in the presence of nicotinamide. […] The cell extracts from untreated cells (lane 1), or treated with ALLN (50 μM) were also included (lane 6).
Furthermore, we examined the effect of Sir2α expression on endogenous levels of acetylated p53. […] We first examined the protein levels of p53 activation in response to DNA damage in these cells by western blot analysis.
(§1) After treatment, the cells were harvested for western blot analysis. […] The cell extracts were resolved by either 8% or 4-20% SDS-PAGE gels (Novex) and analyzed by western blot with α-p53(Ac)-C and α-p53(DO-1).

For assay [3], the system named is IMR-90 cells.
Description: The cells were analyzed for apoptotic cells (subG1) according to DNA content (PI staining). […] Cells were either not treated (I) or treated with 100 μM H2O2 (II, III, IV) for 24 hr. […] Both mock infected cells and pBabe-Sir2α infected cells were either not treated (I and III) or treated with 200 μM H2O2 (II and IV). 24 hr later, the cells were photographed under a microscope.
(§2) Both mock infected cells and pBabe-hSIRT1-363Y infected cells were either not treated (I and III) or treated with 50 μM H2O2 (II and IV) (E), or treated with different concentrations of adriamycin as indicated. 48 hr later, the cells were collected for analysis (D).
IMR-90 cells were infected with either a pBabe retrovirus empty vector or a pBabe retrovirus containing Sir2α, and cultured for a week under pharmacological selection.
(§3) IMR-90 cells were infected with either a pBabe retrovirus empty vector or a pBabe retrovirus containing hSIRT1-363Y, and cultured for a week under pharmacological selection.
After one-week selection, the cells were either frozen for stock or immediately used for further analysis.
Assay [4] relates to IMR-90 cells. The assay can be described thus: DNA damage-induced cell death by adriamycin in IMR-90 cells. The settings on record: pBabe-hSIRT1-363Y infected vs mock infected IMR-90 cells, different concentrations of adriamycin, 48 hr. The assay is classed as cell-based, human.
Description: as §2, §3
Assay [5] relates to acetylated p53 in H1299 cells. Nature of the assay: Acetylated p53 levels in H1299 cells cotransfected with p53 and p300 (western blot). It counts as cell-based, human. The conditions noted are these: H1299 cells cotransfected with p53 and p300, 500 nM TSA vs not treated. How it is done:
FIG. 2. TSA-insensitive deacetylation of p53 by mammalian Sir2α. (A) Colloidal blue staining of a SDS-PAGE gel containing protein Marker (lane 1), a control eluate from M2 loaded with untransfected cell extract (lane 2), and 100 ng of the highly purified Flag-tagged Sir2α recombinant protein (lane 3). (B) Deacetylation of p53 by Sir2α. […] NAD (50 μM) was also added in each reaction except lane 2. The proteins were analyzed by resolution on SDS-PAGE and autoradiography (upper) or Coomassie blue staining (lower). (C) Reduction of the steady-state levels of acetylated p53 by both mouse Sir2α and human SIRT1 expression. Western blot analysis of H1299 cell extracts from the cells cotransfected with p53 and p300 (lane 1), or in combination with Sir2α (lane 2), or in combination with hSIRT1 (lane 4), or Sir2α-355A (lane 3), or hSIRT1-363Y (lane 5), or hSIRT5 (lane 6), or PARP (lane 7) by acetylated p53-specific antibody (upper) or DO-1 for total p53 (lower). The highly conserved histidine residue at the core domain was replaced by alanine for mouse Sir2α (a.a. 355) Sir2α-355A), or replaced by tyrosine for human SIRT1 (a.a. 363) (hSIRT1-363Y). […]
as §1

Structures are written as SMILES. Like-named read-outs stand apart in the source and are kept apart here. Non-standard residues stand in square brackets, D forms with d. Residues, ends and D or L forms follow the SMILES beside them. Nle = CCCC[C@H](N)C(=O)O

As to `NC(=O)c1cccnc1` [nicotinamide], the “effect on Sir2α-mediated deacetylation of 14C-labeled acetylated p53” value (“effect … of 14C-labeled acetylated p53” below) on Sir2α is recorded as “completely inhibited”. In assay [1] (6 hr), the “acetylation level of p53, agent added to etoposide and TSA” value is recorded as “super induction”. The “cellular levels of acetylated p53 induced by DNA damage” value in assay [1] (etoposide plus nicotinamide vs etoposide alone) is “enhanced”. In addition, the “effect on Sir2α-mediated deacetylation of endogenous p53” value in assay [2] is “completely abrogated”.

Regarding `OO` [H2O2, hydrogen peroxide], the cells being killed entry in the assay on IMR-90 cells [3] (mock (pBabe-vector) infected IMR-90 cells, 200 μM H2O2, 24 hr) was “more than 80%”. In the assay on IMR-90 cells [3] (mock infected IMR-90 cells, 50 μM H2O2), the “susceptibility to H2O2-induced cell death” value is given as “relatively resistant”. The cells surviving entry in the assay on IMR-90 cells [3] (pBabe-Sir2α infected IMR-90 cells, 200 μM H2O2, 24 hr) is “about 70%”; with IMR-90 cells [3] (pBabe-hSIRT1-363Y infected IMR-90 cells, 50 μM H2O2), “less than 30%”.

Regarding `COc1cccc2c1C(=O)c1c(O)c3c(c(O)c1C2=O)C[C@@](O)(C(=O)CO)C[C@@H]3O[C@H]1C[C@H](N)[C@H](O)[C@H](C)O1` [adriamycin], the “sensitivity to DNA damage-induced cell death” value in the assay on IMR-90 cells [4] is recorded as “much more sensitive”.

As to `CC(/C=C/C(=O)NO)=C\[C@@H](C)C(=O)c1ccc(N(C)C)cc1` [TSA, Trichostatin A], the “effect … of 14C-labeled acetylated p53” value on Sir2α is given as “no apparent effect”. For the same molecule, the “acetylation level of p53 during DNA damage response, agent added to etoposide” value in assay [1] (6 hr, etoposide plus TSA (0.5 μM) vs etoposide alone) is “mild enhancement”. Moreover, the “steady state level of acetylated p53” value in assay [5] is listed as “elevated”.

`NC(=O)c1cccc(N)c1` [3-AB, 3-aminobenzamide]: the “effect … of 14C-labeled acetylated p53” value on Sir2α was “no significant effect”. Besides, the “acetylation level of p53, agent added to etoposide and TSA” value in assay [1] (6 hr) was “no effect”.

`CCCC[C@@H](C=O)NC(=O)[C@H](CC(C)C)NC(=O)[C@H](CC(C)C)NC(C)=O` [ALLN] (Ac-Leu-Leu-[Nle]-aldehyde): the “acetylation of p53, single agent vs untreated cells” value in assay [1] (6 hr, etoposide 20 μM, ALLN 50 μM) was “no significant p53 acetylation was detected”.
